“Also recorded” adds a separate entry of the source.
Key:
MUC1-fs = MUC1-fs immunofluorescence high-content imaging assay in P cells; assay type: cell-based, human; conditions: read-out: EC50 for removal of MUC1-fs (IF); P cells treated 48 hours
Procedure: Cells grown on CellCarrier-96 or -384 well Ultra microplates (PerkinElmer) were fixed 10 min in PBS containing 4% PFA (Electron Microscopy Sciences), permeabilized 15 min in 0.5% Triton X100 (X100-100ML, Sigma-Aldrich), blocked for 1 hr in blocking reagent (100 mM Tris HCL pH8; 150 mM NaCL; 5 g/L Blocking Reagent [11096176001, Roche]) and treated for 1 hr with primary antibodies diluted in blocking reagent (1:500, monoclonal Fab-A-VSH anti-fsMUC1, AbD22655.2, Bio-Rad; 1:2000, monoclonal Mouse anti-MUC1 (CD227), 60137, Stemcell Technologies; 1:200, polyclonal, Mouse anti-GM130, ab169276, Abcam; 1:100, polyclonal, Rabbit anti-TMED9, 216201-AP, Proteintech; 1:800, polyclonal, Rabbit anti-SEC31A, 17913-1-AP, Proteintech; 1:400, monoclonal, Rabbit anti-EEA1 (C45B10), 3288S, Cell signaling technology; 1:100, polyclonal, Rabbit anti-ERGIC-53, E1031, Sigma-Aldrich; 1:400, monoclonal, Mouse anti-LAMP1 (D401S), 15665, Cell signaling technology; 1:1000, polyclonal, Rabbit anti-Calnexin, ab22595, Abcam; 1:2000, monoclonal, Rabbit anti-GM130 (D6B1) XP, 12480, Cell signaling technology; 1:200, monoclonal, Rabbit anti TNG46, ab50595, Abcam; 1:100, monoclonal, Rabbit anti-Rab7 (D95F2) XP, 9367, Cell signaling technology; 1:100, monoclonal, Rabbit anti-Rab11 (D4F5) XP, 5589, Cell signaling technology). Fixed, stained cells were washed three times in PBS and incubated for 1 hr with secondary antibodies in blocking solution (1:500, Alexa Fluor 488® Goat anti-Mouse IgG, A-11029, Thermo Fisher Scientific®; 1:500, Alexa Fluor 647® F(ab′)2-Goat anti-Rabbit IgG, A21246, Thermo Fisher Scientific®; 1:2000, Hoechst 33342, H3570, Thermo Fisher Scientific®), then washed three times in PBS and imaged.
Cell nuclei were first identified using Hoechst staining, and cell number was calculated. Cytoplasmic regions were then detected around each nucleus based on combined channels. The cells from the edge of the field were eliminated from the analysis. For the quantification of protein abundance, the total signal intensity value for each antibody was calculated separately in the cell cytoplasm and the average signal per cell was calculated for each well.
P cells were seeded 24 hr prior to compound treatment at a density of 12,000 cells/well in 384 well Cell Carrier Ultra plates (6057308, Perkin Elmer), pre-coated with 0.25 mg/mL Synthemax II SC Substrate (3535, Corning). Compounds of the repurposing library set (Corsello et al., 2017) were used at 5 doses (35, 3.5, 0.35, 0.035 and 0.0035 μM) for the primary screen and 10 doses (16, 5.6, 1.8, 0.6, 0.21, 0.07, 0.02, 0.008, 0.002 and 0.0008 μM) for the following screens. The compounds, in two replicates, were transferred from compound source plates to the cell plates using the HighRes Pin Tool. […] After 48 hr incubation, cells were fixed for 20 min in 4% PFA (Electron Microscopy Sciences) in PBS, washed twice, then permeabilized (10 min) with 0.5% Triton-X100 (X100-100ML, Sigma-Aldrich) in PBS and washed once more. Cells were blocked for 10 min at RT with Blocking solution (100 mM Tris HCL pH8; 150 mM NaCL; 5 g/L Blocking Reagent [11096176001, Roche]), then incubated 90 min at RT with one of the following primary antibodies in Roche Blocking solution: 1:500, monoclonal Fab-A-VSH anti-MUC1-fs, AbD22655.2, Bio-Rad; 1:2000, monoclonal mouse anti-MUC1 (214D4), 05-652-KC, Millipore; 1:1000, monoclonal, Rabbit anti-GM130 (D6B1) XP, 12480, Cell signaling technology. […]

[1] = Plasma protein binding (equilibrium dialysis); assay type: in vitro ADME
Procedure: Plasma protein binding was determined by equilibrium dialysis using a Rapid Equilibrium Dialysis (RED) device (Pierce Biotechnology). Each compound was prepared in duplicate at 5 μM in plasma (0.95% acetonitrile, 0.05% DMSO) and added to one side of the membrane with PBS pH 7.4 added to the other side. Compounds were incubated at 37° C. for 5 hr with a 350 rpm orbital shake. After incubation, an aliquot was taken from each side of the membrane and quenched by adding acetontrile to a 3:1 ratio (v/v, ACN:plasma). After quenching, samples were centrifuged (32×G) to pellet precipitated particulates and an aliquot of supernatant was diluted 50/50 (v/v) with water. The resulting solution was analyzed by UPLC-MS/MS with compounds detected by MRM detection on a triple quadrupole mass spectrometer. The compound peak area on the buffer side of the membrane was compared to the peak area on the plasma side of the membrane to determine percent bound. Percent bound in plasma was calculated through the following equations: % free=[area (buffer)/area (plasma)]×100. % bound=100−% free.

ER stress and the UPR = assay: RNA-Seq pathway analysis of fs/+ mouse kidney lysates; assay type: in vivo; conditions: fs/+ mice, 50 mg/kg/day, 7 days
Procedure: RNA was extracted from a sagittal section of a half-kidney. Kidney tissue was homogenized using tissue homogenizer (Tissue-Tearor™, BioSpec Products) in 1 mL of TRIzol™ Reagent (15596026, Thermo Fisher Scientific®). Following 5 min incubation, 0.2 mL chloroform (C2432-500ML, Sigma-Aldrich) was added, and samples were vigorously mixed for 30 sec, then centrifuged at 12,000×g at 4° C. for 15 min. The upper aqueous phase containing RNA was then vigorously mixed with 0.5 mL of isopropanol for 30 sec. After 10 min incubation at RT, the samples were centrifuged at 12,000×g at 4° C. for 10 min. The pellet was resuspended in 1 mL of 75% ethanol and centrifuged at 12,000×g 4° C. for 5 min. The RNA pellet was then air dried for 15 min, dissolved in 50 μL of Nuclease-Free Water (AM9937, Thermo Fisher Scientific®), treated with DNase I, Amplification Grade (18068015, Thermo Fisher Scientific®) following the manufacturer's protocol and assessed for yield and purity by NanoDrop™ 2000 (Thermo Fisher Scientific®).
Data processing and statistical analyses for all RNA-seq experiments were performed in RStudio—Version 1.0.153 as follows. First, bam files obtained from the Broad Institute sequencing platform were reverted to FASTQ files followed by alignment of paired end reads to the mm10 mouse or hg19 human reference genome using STAR. […]

TMED9 = molecular target: T1, TMED9 (Homo sapiens, UniProt Q9BVK6); assay: Cellular thermal shift assay (CETSA) for TMED9 in P cells; assay type: binding; conditions: 5 μM, 1 hour
T1 construct: TMED9 abundance in P cells at escalating temperatures (as indicated) with or without treatment with BRD-4780; endogenous in cells; host or cells: P cells (intact cells treated, then heated and lysed)
T1 sequence (Q9BVK6 38-235): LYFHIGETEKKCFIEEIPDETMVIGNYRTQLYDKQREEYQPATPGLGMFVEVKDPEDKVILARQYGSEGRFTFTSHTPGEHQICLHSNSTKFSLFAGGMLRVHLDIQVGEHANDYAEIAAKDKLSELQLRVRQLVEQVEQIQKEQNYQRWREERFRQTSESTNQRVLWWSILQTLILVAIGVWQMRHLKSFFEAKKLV
Procedure: CETSAs were performed as previously described (Jafari et al., 2014; Reinhard et al., 2015). In brief, P cells were treated in the presence or absence of BRD-4780 for 1 hr, harvested (trypsinized), washed in PBS, resuspended in PBS (containing protease inhibitors) and distributed in 0.2 ml PCR tubes (100 μl; 600,000 cells). Cells were incubated at their designated temperatures for 3 min, then at 25° C. for 3 min and lysed by the addition of 1% NP-40. Immediately thereafter, samples were snap frozen and thawed using thermal cycler set at 25° C. Samples were spun at 20′000×g for 20 min (4° C.) to remove precipitated protein and the supernatant was analyzed by Western blot to examine the TMED9/Nischarin thermal stability.

Plasma stability = assay type: in vitro ADME
total MUC1 mRNA = assay: MUC1 transcription assay (RT-PCR profiling screen) in P cells; assay type: cell-based, human; conditions: P cells, 24 hours
Procedure: qPCR was performed using a previously described protocol (Bittker, 2012). P cells seeded at 2000 cells/well in 384-well, clear bottom, white wall plates were grown for 24 hr, then treated with profiling compounds transferred by pinning to duplicate plates. JQ1 (250 nM) and DMSO were used for controls as above. After 24 hr, cells were washed and cDNAs were made using ABI Cells-to-Ct kit (Thermo Fisher Scientific®, Waltham, Mass.). MUC1 and HMBS delta Cp values were determined using a Roche LightCycler 480 Instrument and TaqMan probes for MUC1 FAM (4351368 assay ID Hs00159357_m1) and HMBS VIC (4448486-assay ID Hs00609297_m1) (Thermo Fisher Scientific®, Waltham, Mass.), in 5 μL reactions. The fold change effect of the compounds on total MUC1 mRNA was normalized to JQ1 and DMSO controls, as described above.

## CC(C)[C@@H]1[C@H]2CC[C@H](C2)[C@H]1N (racemic) [BRD-4780, 2-endo-amino-3-exo-isopropylbicyclo[2.2.1]heptane]
MUC1-fs
  EC50: 0.143 µM
[1]
  protein binding (in words): low protein binding
[1]; plasma
  estimated percent protein bound: 29.7%
ER stress and the UPR
  pathways changed in kidney bulk RNA-Seq: downregulated pathways associated with ER stress and the UPR
TMED9
  TMED9 thermal stability (CETSA): shifted the TMED9 heat denaturation curve to significantly higher temperatures; also recorded: Higher abundance of TMED9 was noted at temperatures >47 °C
Plasma stability
  plasma stability: good microsomal and plasma stability
Total MUC1 mRNA
  effect on MUC1 transcriptional regulation: no effect on MUC1 transcriptional regulation
